Measurements from publication PMC5693111, “Small molecule Photoregulin3 prevents retinal degeneration in the Rho^P23H mouse model of retinitis pigmentosa” (eLife, 2017).
pKd: −log10 of the molar value.

Molecular target: T1, NR2E3 (Homo sapiens, UniProt Q9Y5X4)
T1 construct: aa 90–410 (expressed as His8-MBP-TEV fusion, tag removed)
Experiment: isothermal titration calorimetry ([…] PR3 injected into […] NR2E3; one site model, qualitative)
Assay type: binding

T1 sequence (Q9Y5X4 90-410): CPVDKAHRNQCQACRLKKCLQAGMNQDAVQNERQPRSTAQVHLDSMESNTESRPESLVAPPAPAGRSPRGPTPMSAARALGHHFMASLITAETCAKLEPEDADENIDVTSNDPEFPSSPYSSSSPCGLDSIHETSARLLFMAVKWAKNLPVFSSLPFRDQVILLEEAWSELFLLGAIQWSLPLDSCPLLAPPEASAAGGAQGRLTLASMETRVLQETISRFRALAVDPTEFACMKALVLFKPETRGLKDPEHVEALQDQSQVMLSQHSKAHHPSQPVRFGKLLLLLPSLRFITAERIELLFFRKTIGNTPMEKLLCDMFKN

## COc1cc2nc(CN3CC=C(c4ccccc4)CC3)nc(O)c2cc1OC [PR3, Photoregulin3]
  pKd: ~4.17
